Measurements taken from patent US20180334540A1, “Polymeric Derivative Of Macrolide Immunosuppressant” (Nippon Kayaku Kabushiki Kaisha, priority 2015, published 2018).

Key:
[1] = tested on: DA rats; experiment: Test on single-dose toxicity in rats
Text: (§1) Female DA rats (Japan SLC, Inc.) were intravenously administered through the caudal vein with tacrolimus or Example 1, each once in the dosage indicated in Table 4 and Table 5, and an observation of general symptoms was made successively.

[2] = Blood concentration profile in rats; type: in vivo; conditions: female, SD, whole blood, iv, tacrolimus in rat blood, 5 mg/kg once i.v. caudal vein, Examples: tacrolimus cut out from micelles
Text: Blood Concentration Profile in Rats
The results for Examples 1 to 4 and tacrolimus are presented in FIG. 3, and the results for Examples 5 to 8 and tacrolimus are presented in FIG. 4.

[3] = tested on: rats; conditions: cited from earlier work
[4] = tested on: DA rats; conditions: rat, in vivo, iv, 20 mg/kg
Text: as §1

Structure (SMILES): C=CC[C@@H]1/C=C(\C)C[C@H](C)C[C@H](OC)[C@H]2O[C@@](O)(C(=O)C(=O)N3CCCC[C@H]3C(=O)O[C@H](/C(C)=C/[C@@H]3CC[C@@H](O)[C@H](OC)C3)[C@H](C)[C@@H](O)CC1=O)[C@H](C)C[C@@H]2OC [Tacrolimus, tacrolimus]
- cerebral cortex pathology of dead rats ([1]; FIG. 7): neuronal vacuolation was recognized
- lethal dose ([1]; single i.v. dose, female DA rats): lower than 20 mg/kg
- death ([1]; single i.v. dose, tacrolimus 20 and 30 mg/kg, Example 1 20-50 mg/kg in terms of tacrolimus): half the animals in each group died
- AUC(0-inf) [2]: 5400 ng·h/mL
- Cmax [2]: 2430 ng/mL
- MRT inf [2]: 4.12 h
- Tmax [2]: 4.98 min
- half-life ([2]; read-out: T½ (converted)): 451 min
- symptoms caused by intravenous administration [3]: slight respiratory distress, a decrease in locomotor activity, a prone position, stereotyped behavior
- general symptoms immediately after administration [4]: a prone position, sedation, and a decrease in locomotor activity
